# Experimental data reported in article PMC12700220, “Synthesis, photochemical and biological evaluation of novel photoswitchable glycomimetic ligands of Pseudomonas aeruginosa LecB” (RSC Advances, 2025).
# Assays:
# [1] = molecular target: T1, LecB (Pseudomonas aeruginosa, UniProt Q9HYN5); test: ITC after […] nm illumination; type: binding; set-up: N-terminal 6xHis-tagged LecB
# [2] = molecular target: T1, LecB; test: (soak, […] Å) and ITC; type: binding; set-up: N-terminal 6xHis-tagged LecB (homotetramer)
# T1 sequence (Q9HYN5 entry or part of it): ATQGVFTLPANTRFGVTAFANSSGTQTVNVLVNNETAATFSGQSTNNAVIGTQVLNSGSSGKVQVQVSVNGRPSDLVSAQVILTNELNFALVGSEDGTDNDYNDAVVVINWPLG
SMILES,Kd [1],Kd [2]
"C[C@@H]1O[C@H](CNS(=O)(=O)c2ccc(/N=N\c3ccccc3)cc2)[C@@H](O)[C@H](O)[C@@H]1O (mixture of isomers) [photofucose-2, cis-photofucose-2]",4.71 ± 2.61 µM,–
"C[C@@H]1O[C@H](CNS(=O)(=O)c2ccc(/N=N/c3ccccc3)cc2)[C@@H](O)[C@H](O)[C@@H]1O [photofucose-2, 4-((E)-phenyldiazenyl)-N-(((2R,3S,4R,5S,6S)-3,4,5-trihydroxy-6-methyltetrahydro-2H-pyran-2-yl)methyl)benzenesulfonamide]",–,1.82 ± 0.408 µM
